≈ marks a conversion by molar mass, not a printed value.
How the values were obtained:
[1] = system: MRSA; test: MIC by broth microdilution, MRSA isolates; type: cell-based; conditions: for MIC50 MRSA AG38: strain AG38; for MIC50 MRSA AG39: strain AG39; for MIC50 MRSA AG42: strain AG42; for MIC50 MRSA AG44: strain AG44
[2] = system: E coli wild type; test: MIC by broth microdilution, wild type E coli; type: cell-based; conditions: for MIC AG160 E. coli WT: clinical isolate AG160 WT; for MIC AG160 E. coli WT / MIC pH430 E. coli WT: Table 2 (Example 4); for MIC pH430 E. coli WT: engineered strain pH430 WT; for MIC50 E coli AG01: strain AG01; for MIC50 E coli AG03: strain AG03; for MIC50 E coli AG55: strain AG55; for MIC AG212 E. coli: strain AG212 E. coli (ATCC25922); for MIC50 E coli BM13 (AG06) wt: Table 2A (Example 2); for MIC50 E coli pH430 WT: Table 2B (Example 2)
[3] = system: P aeruginosa; test: MIC by broth microdilution, P aeruginosa isolates; type: cell-based, Pseudomonas aeruginosa; conditions: for MIC50 P aeruginosa AG31: strain AG31; for MIC50 P aeruginosa AG32: strain AG32; for MIC50 P aeruginosa AG33: strain AG33; for MIC50 P aeruginosa AG86: strain AG86
[4] = system: E coli carrying specific resistance determinants; test: MIC by broth microdilution, E coli carrying specific resistance determinants; type: cell-based; conditions: for MIC AG037 E. coli APH(3′)-III: engineered strain AG037 APH(3′)-III; for MIC pH421 E. coli APH(3′)-I: engineered strain pH421 APH(3′)-I; for MIC pH422 E. coli APH(3′)-II: engineered strain pH422 APH(3′)-II; for MIC pH423 E. coli APH(3′)-VI: engineered strain pH423 APH(3′)-VI
[5] = system: Klebsiella pneumonia AG215; test: MIC by broth microdilution, Klebsiella pneumonia; type: cell-based; conditions: strain AG215 Klebsiella pneumonia
[6] = system: Acinetobacter baumannii pittii AG225; test: MIC by broth microdilution, Acinetobacter baumannii; type: cell-based; conditions: strain AG225 Acinetobacter baumannii pittii
[7] = system: Enterobacter cloacae AG290; test: MIC by broth microdilution, Enterobacter cloacae; type: cell-based; conditions: strain AG290 Enterobacter cloacae
[8] = system: M. smegmatis SZ380; test: MIC by broth microdilution, M. smegmatis; conditions: for MIC SZ380 M. smegmatis: strain SZ380 Mycobacterium smegmatis
[9] = strain AG220 Pseudomonas aeruginosa ATCC27853

Compound | MIC AG160 E. coli WT [2] | MIC pH430 E. coli WT [2] | MIC AG212 E. coli [2] | MIC AG220 P. aerugin [3, 9] | MIC AG037 E. coli APH(3′)-III ([4]; Table 2 (Example 4)) | MIC pH421 E. coli APH(3′)-I ([4]; Table 2 (Example 4)) | MIC pH422 E. coli APH(3′)-II ([4]; Table 2 (Example 4)) | MIC pH423 E. coli APH(3′)-VI ([4]; Table 2 (Example 4)) | MIC AG215 K. pneumon [5] | MIC AG225 A. baumannii [6] | MIC AG290 E. cloacae [7] | MIC SZ380 M. smegmatis [8] | MIC50 MRSA AG38 ([1]; Table 1 (Example 2)) | MIC50 MRSA AG39 ([1]; Table 1 (Example 2)) | MIC50 MRSA AG42 ([1]; Table 1 (Example 2)) | MIC50 MRSA AG44 ([1]; Table 1 (Example 2)) | MIC50 E coli BM13 (AG06) wt [2] | MIC50 E coli pH430 WT [2] | MIC50 E coli AG01 ([2]; Table 1 (Example 2)) | MIC50 E coli AG03 ([2]; Table 1 (Example 2)) | further results
5″-Deoxy-5″-ureido-paromomycin acetate salt [Compound 141] | 4 µg/mL | 2-4 μg/ml | 4 µg/mL | >64 µg/mL | >128 µg/mL | >64 μg/ml | >64 μg/ml | >64 μg/ml | 2 µg/mL | 4 µg/mL | 2 to 4 µg/mL | 2 µg/mL |  |  |  |  |  |  |  |  | MIC50 MRSA AG38 ([1]; Table 1 (Example 1)): 4 to 8 µg/mL; MIC50 MRSA AG39 ([1]; Table 1 (Example 1)): >128 µg/mL; MIC50 MRSA AG42 ([1]; Table 1 (Example 1)): >128 µg/mL; MIC50 MRSA AG44 ([1]; Table 1 (Example 1)): 4 µg/mL; MIC E coli AG006 wt ([2]; AG006 wt, Table 2 (Example 1)): 1 µg/mL; MIC50 E coli AG01 ([2]; Table 1 (Example 1)): 16 µg/mL; MIC50 E coli AG03 ([2]; Table 1 (Example 1)): 16 µg/mL; MIC50 E coli AG55 ([2]; Table 1 (Example 1)): 16 µg/mL; MIC50 P aeruginosa AG31 ([3]; Table 1 (Example 1)): >128 µg/mL; MIC50 P aeruginosa AG32 ([3]; Table 1 (Example 1)): >128 µg/mL; MIC50 P aeruginosa AG33 ([3]; Table 1 (Example 1)): >128 µg/mL; MIC50 P aeruginosa AG86 ([3]; Table 1 (Example 1)): >128 µg/mL
NCC1O[C@H](O[C@@H]2C(N)C[C@@H](N)C(O)[C@H]2O[C@@H]2O[C@H](CO)[C@H](F)C2O)[C@@H](N)C(O)[C@@H]1O (some centres unmarked) [Compound 093] |  |  |  |  |  |  |  |  |  |  |  |  |  |  |  |  |  |  |  |  | MIC ([2]; Escherichia coli, ATCC25922, read-out: MIC AG212 E. coli, strain AG212 E. coli (ATCC25922)): 2 µg/mL (≈ 4.38 µM); MIC ([3]; strain AG220 Pseudomonas aeruginosa ATCC27853, read-out: MIC AG220 P. aerugin): > 64 µg/mL; MIC ([5]; Klebsiella pneumoniae, read-out: MIC AG215 K. pneumon): 1 to 2 µg/mL (≈ 2.19 to 4.38 µM); MIC [6]: 16 µg/mL (≈ 35.1 µM); MIC ([7]; read-out: MIC AG290 E. cloacae): 2 µg/mL (≈ 4.38 µM); MIC ([8]; Mycolicibacterium smegmatis, SZ380, read-out: MIC SZ380 M. smegmatis, strain SZ380 Mycobacterium smegmatis): 8 µg/mL (≈ 17.5 µM)
CCC[C@@H]1C(CO)O[C@H](O[C@@H]2C(N)C[C@@H](N)C(O)[C@H]2O[C@@H]2O[C@H](CO)[C@H](O[C@H]3C[C@@H](CN)[C@@H](O)C(O)C3N)C2O)[C@@H](N)C1O (some centres unmarked) [Compound 116] | 1 µg/mL (≈ 1.56 µM) | 0.5 μg/ml | 2 µg/mL (≈ 3.13 µM) | 4 µg/mL (≈ 6.25 µM) | >64 µg/mL | >32 μg/ml | 0.5 μg/ml | 1 μg/ml | 1 µg/mL (≈ 1.56 µM) | 2 µg/mL (≈ 3.13 µM) | 1 µg/mL (≈ 1.56 µM) | 1 µg/mL (≈ 1.56 µM) |  |  |  |  |  |  |  |  | MIC AG163 E. coli APH(3′)-I ([4]; clinical isolate AG163 APH(3′)-I, Table 2 (Example 4)): >64 µg/mL; MIC AG166 E. coli APH(3′)-II ([4]; clinical isolate AG166 APH(3′)-II, Table 2 (Example 4)): 2 to 4 µg/mL
CCCC(O)C1OC(OC2C(N)CC(N)C(O)C2OC2OC(CO)C(OC3OC(CN)C(O)C(O)C3N)C2O)C(N)C(O)C1O (centres unmarked) [Compound 142] |  |  | 2 µg/mL (≈ 3.04 µM) | >32 µg/mL |  |  |  |  | 1 µg/mL (≈ 1.52 µM) | 2 µg/mL (≈ 3.04 µM) | 1 µg/mL (≈ 1.52 µM) | 0.5 µg/mL (≈ 0.76 µM) | 4 µg/mL (≈ 6.08 µM) | >128 µg/mL | >128 µg/mL | 2 µg/mL (≈ 3.04 µM) | 1 µg/mL (≈ 1.52 µM) | 1 μg/ml | 8 µg/mL (≈ 12.2 µM) | 8 µg/mL (≈ 12.2 µM) | MIC50 E coli AG55 ([2]; Table 1 (Example 2)): 8 µg/mL (≈ 12.2 µM); MIC50 P aeruginosa AG31 ([3]; Table 1 (Example 2)): >128 µg/mL; MIC50 P aeruginosa AG32 ([3]; Table 1 (Example 2)): >128 µg/mL; MIC50 P aeruginosa AG33 ([3]; Table 1 (Example 2)): >128 µg/mL; MIC50 P aeruginosa AG86 ([3]; Table 1 (Example 2)): >128 µg/mL; MIC50 E coli AG036 ANT(4′,4″) ([4]; Table 2B (Example 2)): 32 to 64 µg/mL; MIC50 E coli AG037 APH(3′)-III ([4]; Table 2B (Example 2)): >32 µg/mL; MIC50 E coli AG103 armA ([4]; Table 2B (Example 2)): 1 µg/mL (≈ 1.52 µM); MIC50 E coli pH414 AAC(6′)-I ([4]; pH414 AAC(6′)-I, Table 2B (Example 2)): 1 μg/ml; MIC50 E coli pH415 AAC(6′)-II ([4]; pH415 AAC(6′)-II, Table 2B (Example 2)): 1 μg/ml; MIC50 E coli pH421 APH(3′)-I ([4]; Table 2B (Example 2)): >32 μg/ml; MIC50 E coli pH422 APH(3′)-II ([4]; Table 2B (Example 2)): >32 μg/ml; MIC50 E coli pH423 APH(3)-VI ([4]; Table 2B (Example 2)): >32 μg/ml; MIC50 E coli pH432 ANT(4′) ([4]; Table 2B (Example 2)): 1 μg/ml
CCCC(O)C1OC(OC2C(N)CC(N)C(O)C2OC2OC(CO)C(OC3OC(CN)C(O)C(O)C3N)C2O)C(N)C(O)C1O (centres unmarked) [Compound 143] |  |  | 8 µg/mL (≈ 12.2 µM) | >128 µg/mL |  |  |  |  | 4 µg/mL (≈ 6.08 µM) | 4 to 8 µg/mL | 4 to 8 µg/mL | 16 µg/mL (≈ 24.3 µM) | 32 to 64 µg/mL | >64 µg/mL | >64 µg/mL | 16 µg/mL (≈ 24.3 µM) | 4 µg/mL (≈ 6.08 µM) | 4 μg/ml | 32 µg/mL (≈ 48.7 µM) | 32 µg/mL (≈ 48.7 µM) | MIC50 E coli AG55 ([2]; Table 1 (Example 2)): 32 µg/mL (≈ 48.7 µM); MIC50 P aeruginosa AG31 ([3]; Table 1 (Example 2)): >64 µg/mL; MIC50 P aeruginosa AG32 ([3]; Table 1 (Example 2)): >64 µg/mL; MIC50 P aeruginosa AG33 ([3]; Table 1 (Example 2)): >64 µg/mL; MIC50 P aeruginosa AG86 ([3]; Table 1 (Example 2)): >64 µg/mL; MIC50 E coli AG036 ANT(4′,4″) ([4]; Table 2B (Example 2)): 64 µg/mL (≈ 97.3 µM); MIC50 E coli AG037 APH(3′)-III ([4]; Table 2B (Example 2)): >128 µg/mL; MIC50 E coli AG103 armA ([4]; Table 2B (Example 2)): 16 to 32 µg/mL; MIC50 E coli pH421 APH(3′)-I ([4]; Table 2B (Example 2)): >128 μg/ml; MIC50 E coli pH422 APH(3′)-II ([4]; Table 2B (Example 2)): >128 μg/ml; MIC50 E coli pH423 APH(3)-VI ([4]; Table 2B (Example 2)): 32-64 μg/ml; MIC50 E coli pH432 ANT(4′) ([4]; Table 2B (Example 2)): 4 μg/ml
